Test results from patent US20220144812A1, “QUINOLINE DERIVATIVES AND THEIR USE FOR THE TREATMENT OF CANCER” (Epizyme, Inc., priority 2019, published 2022).

Columns and labels:
HT1376 bladder cell line = experiment: 7-day proliferation assay, HT1376; type: cell-based; settings: Homo sapiens, HT-1376, 168 h; HT1376, 7 days, CellTiter-Glo
Description: (§1) This example describes methods and materials for 7-day proliferation assay.
(§2) A total of 22 bladder cell lines were used (see table below). Cell lines were cultured in recommended growth media according to supplier.
(§3) Cells were in culture media at a density optimized for a 7-day culture in a final volume of 150 μL per well in white opaque 96-well plates. Cells were allowed to adhere for several hours (4-6 h) then compounds were added with HPD300 Digital Dispenser and placed into the incubator at 37° C., 5% CO2 for 7 days. After 7 days incubation, 100 μL of CellTiter-Glo® Luminescent Cell Viability Assay (Promega-G7573) reagents were added per well. After 20 minutes incubation luminescence was measured in plate reader. IC50 were calculated from a non-linear logarithmic growth curve.
(§4) IC50 values (nanomolar (nM)) are summarized in the table below, which depicts the inhibitory effect of certain compounds in bladder cell lines.

KMBC2 bladder cell line = experiment: 7-day proliferation assay, KMBC2; type: cell-based; settings: 168 h; KMBC2, 7 days, CellTiter-Glo
Description: as §1, §2, §3, §4

EP300 (P300(1048-1664)) = target: T1, EP300 (P300(1048-1664)) (Homo sapiens, UniProt Q09472); experiment: Biochemical assay for EP300, SAMDI; settings: EP300, SAMDI; read-out: EP300 Biochemistry IC50
T1 construct: P300(1048-1664)
T1 sequence (Q09472 1048-1664): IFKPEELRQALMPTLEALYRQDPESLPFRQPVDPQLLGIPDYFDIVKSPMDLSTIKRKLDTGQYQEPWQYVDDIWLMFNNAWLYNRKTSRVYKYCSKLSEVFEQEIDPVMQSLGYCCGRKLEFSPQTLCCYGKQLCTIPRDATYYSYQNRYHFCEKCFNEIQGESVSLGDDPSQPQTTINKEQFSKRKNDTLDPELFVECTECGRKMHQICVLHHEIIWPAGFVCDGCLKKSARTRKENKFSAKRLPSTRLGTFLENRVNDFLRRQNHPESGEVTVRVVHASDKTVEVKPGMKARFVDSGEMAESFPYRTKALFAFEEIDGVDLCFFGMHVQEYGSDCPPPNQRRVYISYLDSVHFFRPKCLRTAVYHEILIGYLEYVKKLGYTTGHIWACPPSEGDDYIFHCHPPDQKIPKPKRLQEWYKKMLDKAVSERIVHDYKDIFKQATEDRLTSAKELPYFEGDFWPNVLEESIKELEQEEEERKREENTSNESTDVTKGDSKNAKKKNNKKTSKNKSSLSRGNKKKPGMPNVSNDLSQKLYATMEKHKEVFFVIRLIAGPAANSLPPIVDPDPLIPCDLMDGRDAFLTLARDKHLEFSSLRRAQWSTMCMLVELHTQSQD
Text: The following example describes materials and methods relating to a biochemical assay for EP300. IC50 values (micromolar (μM)) are summarized in Table 1, Table 2, and Table 3 under the column labeled: “EP300 Biochemistry IC50 (micromolar).”

VMCUB1 bladder cell line = experiment: 7-day proliferation assay, VMCUB1; type: cell-based; settings: Homo sapiens, VM-CUB-1, 168 h; VMCUB1, 7 days, CellTiter-Glo
Description: as §1, §2, §3, §4

[1] = tested on: UM-UC-3 bladder cell line; experiment: 7-day proliferation assay, UM-UC-3; type: cell-based; settings: Homo sapiens, UMUC3, 168 h; UM-UC-3, 7 days, CellTiter-Glo
Description: as §1, §2, §3, §4

CLS439 bladder cell line = experiment: 7-day proliferation assay, CLS439; type: cell-based; settings: 168 h; CLS439, 7 days, CellTiter-Glo
Description: as §1, §2, §3, §4

SCABER bladder cell line = experiment: 7-day proliferation assay, SCABER; type: cell-based; settings: Homo sapiens, 168 h, 7 days, CellTiter-Glo
Description: as §1, §2, §3, §4

HT1197 bladder cell line = experiment: 7-day proliferation assay, HT1197; type: cell-based; settings: Homo sapiens, 168 h; HT1197, 7 days, CellTiter-Glo
Description: as §1, §2, §3, §4

RT4 bladder cell line = experiment: 7-day proliferation assay, RT4; type: cell-based; settings: 168 h; RT4, 7 days, CellTiter-Glo
Description: as §1, §2, §3, §4

CAL29 bladder cell line = experiment: 7-day proliferation assay, CAL29; type: cell-based; settings: 168 h; CAL29, 7 days, CellTiter-Glo
Description: as §1, §2, §3, §4

JMSU1 bladder cell line = experiment: 7-day proliferation assay, JMSU1; type: cell-based; settings: JMSU-1, 168 h; JMSU1, 7 days, CellTiter-Glo
Description: as §1, §2, §3, §4

RT112 bladder cell line = experiment: 7-day proliferation assay, RT112; type: cell-based; settings: Homo sapiens, RT-112, 168 h; RT112, 7 days, CellTiter-Glo
Description: as §1, §2, §3, §4

KU1919 bladder cell line = experiment: 7-day proliferation assay, KU1919; type: cell-based; settings: Homo sapiens, KU-19-19, 168 h; KU1919, 7 days, CellTiter-Glo
Description: as §1, §2, §3, §4

647V cells = experiment: High throughput proliferation (HTP) assay; type: cell-based; settings: Homo sapiens, 647-V, high throughput proliferation; read-out: CREBBP HTP IC50
Summary of the method: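 Proliferation IC50 (micromolar) derived from a 7-day CellTiter-Glo viable-cell readout in 647V cells exposed, in triplicate, to rising compound concentrations; cells grown in DMEM plus 15% heat-inactivated FBS at 37° C under 5% CO2.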

UBLC1 bladder cell line = experiment: 7-day proliferation assay, UBLC1; type: cell-based; settings: 168 h; UBLC1, 7 days, CellTiter-Glo
Description: as §1, §2, §3, §4

647V bladder cell line = experiment: 7-day proliferation assay, 647V; type: cell-based; settings: Homo sapiens, 168 h, 7 days, CellTiter-Glo
Description: as §1, §2, §3, §4

[2] = tested on: BFTC905 bladder cell line; experiment: 7-day proliferation assay, BFTC905; type: cell-based; settings: Homo sapiens, BFTC-905, 168 h; BFTC905, 7 days, CellTiter-Glo
Description: as §1, §2, §3, §4

IC50 (HT1376 bladder cell line)	IC50 (EP300 (P300(1048-1664)))	SMILES	IC50 (KMBC2 bladder cell line)	IC50 (VMCUB1 bladder cell line)	IC50 [1]	IC50 (CLS439 bladder cell line)	IC50 (SCABER bladder cell line)	IC50 (HT1197 bladder cell line)	IC50 (RT4 bladder cell line)	IC50 (CAL29 bladder cell line)	IC50 (JMSU1 bladder cell line)	IC50 (RT112 bladder cell line)	IC50 (KU1919 bladder cell line)	IC50 (647V cells)	IC50 (UBLC1 bladder cell line)	IC50 (647V bladder cell line)	IC50 [2]
3890 nM	4.4 nM	CCn1ncc(CN(C)C(=O)c2cc(-c3ccc(NCCNC)c(C)n3)nc3ccc(Cl)cc23)c1C [Compound 3, 6-chloro-N-[(1-ethyl-5-methyl-1H-pyrazol-4-yl)methyl]-N-methyl-2-(6-methyl-5-{[2-(methylamino)ethyl]amino}pyridin-2-yl)quinoline-4-carboxamide]	7640 nM	69 nM	792 nM	619 nM	249 nM	154 nM	158 nM	1990 nM	378 nM	111 nM	145 nM	27 nM	141 nM	127 nM	122 nM
1250 nM	6.5 nM	CCn1ncc(CN(C)C(=O)c2cc(-c3ccc(NC4CN(C)C4)c(C)n3)nc3ccc(Cl)cc23)c1C [Compound 480]	1810 nM	116 nM	584 nM	480 nM	172 nM	112 nM	174 nM	524 nM	546 nM	198 nM	90.5 nM	19.5 nM	234 nM	52 nM	110 nM
2760 nM	22 nM	CCc1noc(CN(C)C(=O)c2cc(-c3ccc(NCCNC)c(C)n3)nc3ccc(Cl)cc23)c1C [Compound 537]	1600 nM	116 nM	1380 nM	849 nM	252 nM	346 nM	344 nM	704 nM	748 nM	370 nM	217 nM	50.4 nM	494 nM	125 nM	224 nM
2070 nM	18.7 nM	CCc1ncc(CN(C)C(=O)c2cc(-c3ccc(NCCN(C)C)c(C)n3)nc3ccc(Cl)cc23)n1C [Compound 577]	896 nM	51 nM	1100 nM	461 nM	182 nM	234 nM	199 nM	1200 nM	997 nM	78 nM	102 nM	31.2 nM	427 nM	53.5 nM	132 nM
